Source: patent US11298363B2, “Triazolobenzazepines as vasopressin V1a receptor antagonists” (RICHTER GEDEON NYRT., priority 2017, dated 2022)
Where a name gives a salt, the structure may show the parent alone.

Legend:
[1] = molecular target: T1, human vasopressin V1a receptor (Homo sapiens, UniProt P37288); experiment: Human vasopressin V1a receptor binding assay; settings: 1321N1 cell membranes, [3H]vasopressin; read-out: Ki (nM) on hV1a cell line
Method: Human Vasopressin V1a Receptor Binding Assay
Cells were suspended in preparative buffer (50 mM Tris, 1 mM EDTA, 0.1 mM PMSF) and homogenized with glass homogenizing potter. To separate the raw membrane fraction two consecutive centrifugation procedures (40,000 g for 20 minutes at 4° C.) were executed, then the membrane was taken into the preparatory buffer during a final washing step, it was divided into aliquots which were stored at −80° C. until the time of measurement.
To determine the final affinity value, the results of at least two independent experiments were taken into account.
Non-specific binding values were determined in the presence of unlabeled 1.2×10^−6 M (Arg^8)-vasopressin. Samples were incubated in a total volume of 0.33 ml for 60 minutes at 27° C. Membrane-bound and free ligands were separated by filtration through a 0.5% polyethyleneimine-impregnated UniFilter® GF/B™. After drying the filter plates, 40 μl Microscint-20 (Packard) scintillation cocktail was added to the samples. Finally, radioactivity was measured using MicroBeta^2 Microplate Counter (Perkin Elmer).
During fitting, the asymptotes are not fixed. The K values (inhibition constant) are given with Cheng-Prusoff equation Ki=IC50/[1+(L/KD)] wherein [L] is the radioligand concentration used in the experiment and [KD] is the affinity of the radioactively labelled ligand for the given receptor. The KD is determined beforehand using the Scatchard curve.

[2] = molecular target: T1, human vasopressin V1a receptor; experiment: Functional assay on human vasopressin V1a receptor expressing cell line (intracellular Ca2+ fluorescence); assay type: cell-based; settings: 1321N1 cells, (Arg8)-vasopressin at EC80; read-out: IC50 (nM) on hV1a cell line
Method: Functional Assay to Test Compounds on Human Vasopressin V1a Receptor Expressing Cell Line
The ordinary secondary messenger pathway of the measured GPCR receptor was used, the endogenous Gq-associated system.
Using 30,000 cells/plate, compounds were measured on 96-well plates. The buffer composition of the measurements was the following (expressed in mM): 140 NaCl, 5 KCl, 2 CaCl2), 2 MgCl2, 10 glucose, 10 HEPES (4-(2-hydroxyethyl)-1-piperazine-ethanesulfonic acid), 2 probenecid, pH=7.4. FLIPR Calcium 5 kit (Molecular Devices) was used as fluorescent dye, the medium was not removed prior to filling with the dye and the cells were not washed out either before or after. The incubation was performed at room temperature, the final concentration of DMSO was 1%. The materials to be measured were administered in 15 to 20 minutes pretreatment, at least two parallels of each compound in each concentration was measured.
Fluorescence signal was used to determine the intracellular Ca^2+ level, the reader was FlexStation II96. […] The fluorescence signal was logged in every 1.4 seconds for 1 minute. The reference compounds used were the following: (Arg^8)-vasopressin as agonist at concentration of EC80, determined for each plate, and relcovaptan as antagonist at 1 μM. The % of inhibition at each concentration and the IC50 value of the compounds were determined where a concentration line was also measured.
The total AVP concentration-response curve was recorded on each plate. The effect of compounds measured was expressed by percentage of relative inhibition compared to control response. […] The average IC50 values were calculated from at least three independent measurements in all cases.

T1 sequence (P37288 whole entry): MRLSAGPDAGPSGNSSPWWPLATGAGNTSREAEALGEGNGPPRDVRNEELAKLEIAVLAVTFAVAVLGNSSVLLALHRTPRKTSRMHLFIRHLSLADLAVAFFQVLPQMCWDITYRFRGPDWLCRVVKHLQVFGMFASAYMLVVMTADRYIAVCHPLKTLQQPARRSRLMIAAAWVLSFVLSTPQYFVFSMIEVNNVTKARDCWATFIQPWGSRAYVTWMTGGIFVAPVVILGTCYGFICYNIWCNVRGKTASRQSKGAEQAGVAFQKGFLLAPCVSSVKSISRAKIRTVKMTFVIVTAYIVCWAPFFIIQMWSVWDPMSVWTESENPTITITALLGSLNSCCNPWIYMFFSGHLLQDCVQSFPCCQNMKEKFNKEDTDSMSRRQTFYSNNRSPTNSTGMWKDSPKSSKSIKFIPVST

Row | Ki [1] [nM] | IC50 [2] [nM] | Structure (SMILES)
1 | 7.6 | 55 | FC(F)(F)c1ccc2c(c1)CC(OCC1CC1)Cc1nnc([C@H]3CC[C@H](Oc4ccccn4)CC3)n1-2 (stereo partly drawn) [Example 51, 5-(cyclopropylmethoxy)-1-[trans-4-(pyridin-2-yloxy)cyclohexyl]-8-(trifluoromethyl)-5,6-dihydro-4H-[1,2,4]triazolo[4,3-a][1]benzazepine]
2 | 0.8 | 2.5 | Clc1ccc2c(c1)CC(OCC1CC1)Cc1nnc([C@H]3CC[C@H](Oc4ccccn4)CC3)n1-2 (stereo partly drawn) [Example 59, 5-(Cyclopropylmethoxy)-8-chloro-1-[trans-4-(pyridin-2-yloxy)cyclohexyl]-5,6-dihydro-4H-[1,2,4]triazolo[4,3-a][1]benzazepine]
3 | 0.5 | 1.1 | O=C1Cc2cc(Br)ccc2-n2c(nnc2[C@H]2CC[C@H](Oc3ccccn3)CC2)C1 [Example 64]
4 | 0.5 | 1 | OC1Cc2cc(Br)ccc2-n2c(nnc2[C@H]2CC[C@H](Oc3ccccn3)CC2)C1 (stereo partly drawn) [Example 65, 8-bromo-1-[trans-4-(pyridin-2-yloxy)cyclohexyl]-5,6-dihydro-4H-[1,2,4]triazolo[4,3-a][1]benzazepin-5-ol]
5 | 0.6 | 2.3 | CN(C)[C@H]1Cc2cc(Cl)ccc2-n2c(nnc2[C@H]2CC[C@H](Oc3ccccn3)CC2)C1 [Example 67]
6 | 9.4 | 33 | CC(=O)N[C@H]1Cc2cc(Cl)ccc2-n2c(nnc2[C@H]2CC[C@H](Oc3ccccn3)CC2)C1 [Example 68, (5S)—N-{8-chloro-1[trans-4-(pyridin-2-yloxy)cyclohexyl]-5,6-dihydro-4H-[1,2,4]triazolo[4,3-a][1]benzazepin-5-yl}acetamide]
7 | 10 | 139 | Clc1ccc2c(c1)CC1(Cc3nnc([C@H]4CC[C@H](CN5CCCCC5)CC4)n3-2)OCCO1 [Example 69, 8′-chloro-1′-[trans-4-(piperidin-1-ylmethyl)cyclohexyl]-4′H,6′H-spiro[1,3-dioxolane-2,5′-[1,2,4]triazolo[4,3-a][1]benzazepine]]
8 | 0.4 | 1.2 | O=C([C@H]1CC[C@H](c2nnc3n2-c2ccc(Cl)cc2CC2(C3)OCCO2)CC1)N1CCCC1 [Example 70, [Trans-4-(8′-chloro-4′H,6′H-spiro[1,3-dioxolane-2,5′-[1,2,4]triazolo[4,3-a][1]benzazepine]-1′-yl)cyclohexyl](pyrrolidin-1-yl)methanone]
9 | 14 | 22 | O=C1Cc2cc(Cl)ccc2-n2c(nnc2[C@H]2CC[C@H](C(F)(F)F)CC2)C1 [Example 71, 8-chloro-1-[trans-4-(trifluoromethyl)cyclohexyl]-4H-[1,2,4]triazolo[4,3-a][1]benzazepin-5(6H)-one]

Second part, the compound before the results:

Row | Structure (SMILES) | Ki [1] [nM] | IC50 [2] [nM]
10 | CC(C)(C)OC(=O)NC1Cc2cc(C(F)(F)F)ccc2-n2c(nnc2[C@H]2CC[C@H](Oc3ccccn3)CC2)C1 (stereo partly drawn) [Example 33, Tert-butyl {1-[trans-4-(pyridin-2-yloxy)cyclohexyl]-8-(trifluoromethyl)-5,6-dihydro-4H-[1,2,4]triazolo[4,3-a][1]benzazepin-5-yl}carbamate] | 111 | 480
11 | NC1Cc2cc(C(F)(F)F)ccc2-n2c(nnc2[C@H]2CC[C@H](Oc3ccccn3)CC2)C1 (stereo partly drawn) [Example 34, 1-[trans-4-(pyridin-2-yloxy)cyclohexyl]-8-(trifluoromethyl)-5,6-dihydro-4H-[1,2,4]triazolo[4,3-a][1]benzazepine-5-amine hydrochloride] | 52 | 700
12 | CN(C)C1Cc2cc(C(F)(F)F)ccc2-n2c(nnc2[C@H]2CC[C@H](Oc3ccccn3)CC2)C1 (stereo partly drawn) [Example 35, N,N-dimethyl-1-[trans-4-(pyridin-2-yloxy)cyclohexyl]-8-(trifluoromethyl)-5,6-dihydro-4H-[1,2,4]triazolo[4,3-a][1]benzazepine-5-amine] | 9.7 | 160
13 | CC(C)NC1Cc2cc(C(F)(F)F)ccc2-n2c(nnc2[C@H]2CC[C@H](Oc3ccccn3)CC2)C1 (stereo partly drawn) [Example 36, N-(propan-2-yl)-1-[trans-4-(pyridin-2-yloxy)cyclohexyl]-8-(trifluoromethyl)-5,6-dihydro-4H-[1,2,4]triazolo[4,3-a][1]benzazepine-5-amine] | 36 | 610
14 | Cc1ccc2c(c1)CC(N)Cc1nnc([C@H]3CC[C@H](Oc4ccccn4)CC3)n1-2 (stereo partly drawn) [Example 37, 8-methyl-1-[trans-4-(pyridin-2-yloxy)cyclohexyl]-5,6-dihydro-4H-[1,2,4]triazolo[4,3-a][1]benzazepine-5-amine] | 7 | 100
15 | Cc1ccc2c(c1)CC(NC(C)C)Cc1nnc([C@H]3CC[C@H](Oc4ccccn4)CC3)n1-2 (stereo partly drawn) [Example 38, 8-methyl-N-(propan-2yl)-1-[trans-4-(pyridin-2-yloxy)cyclohexyl]-5,6-dihydro-4H-[1,2,4]triazolo[4,3-a][1]benzazepine-5-amine] | 2 | 30
16 | NC1Cc2cc(Br)ccc2-n2c(nnc2[C@H]2CC[C@H](Oc3ccccn3)CC2)C1 (stereo partly drawn) [Example 39, 8-bromo-1-[trans-4-(pyridin-2-yloxy)cyclohexyl]-5,6-dihydro-4H-[1,2,4]triazolo[4,3-a][1]benzazepine-5-amine] | 1.4 | 8.3
17 | CC(C)NC1Cc2cc(Br)ccc2-n2c(nnc2[C@H]2CC[C@H](Oc3ccccn3)CC2)C1 (stereo partly drawn) [Example 40, 8-bromo-N-(propan-2-yl)-1-[trans-4-(pyridin-2-yloxy)cyclohexyl]-5,6-dihydro-4H-[1,2,4]triazolo[4,3-a][1]benzazepine-5-amine] | 0.9 | 8.4
18 | NC1Cc2cc(Cl)ccc2-n2c(nnc2[C@H]2CC[C@H](C(F)(F)F)CC2)C1 (some centres unmarked) [Example 43] | 88 | 210
19 | CC(C)NC1Cc2cc(Cl)ccc2-n2c(nnc2[C@H]2CC[C@H](C(F)(F)F)CC2)C1 (stereo partly drawn) [Example 44, 8-chloro-N-(propan-2-yl)-1-[trans-4-(trifluoromethyl)cyclohexyl]-5,6-dihydro-4H-[1,2,4]triazolo[4,3-a][1]benzazepine-5-amine] | 26 | 480
20 | NC1Cc2cc(Br)ccc2-n2c(nnc2[C@H]2CC[C@H](C(F)(F)F)CC2)C1 (stereo partly drawn) [Example 45, 8-bromo-1-[trans-4-(trifluoromethyl)cyclohexyl]-5,6-dihydro-4H-[1,2,4]triazolo[4,3-a][1]benzazepine-5-amine] | 38 | 870
21 | CC(C)NC1Cc2cc(Br)ccc2-n2c(nnc2[C@H]2CC[C@H](C(F)(F)F)CC2)C1 (stereo partly drawn) [Example 46, 8-bromo-N-(propan-2-yl)-1-[trans-4-(trifluoromethyl)cyclohexyl]-5,6-dihydro-4H-[1,2,4]triazolo[4,3-a][1]benzazepine-5-amine] | 23 | 410
22 | O=C1Cc2cc(C(F)(F)F)ccc2-n2c(nnc2[C@H]2CC[C@H](Oc3ccccn3)CC2)C1 [Example 48, 1-[trans-4-(pyridin-2-yloxy)cyclohexyl]-8-(trifluoromethyl)-4H-[1,2,4]triazolo[4,3-a][1]benzazepin-5(6H)-one] | 18 | 340
23 | OC1Cc2cc(C(F)(F)F)ccc2-n2c(nnc2[C@H]2CC[C@H](Oc3ccccn3)CC2)C1 (stereo partly drawn) [Example 49, 1-[trans-4-(pyridin-2-yloxy)cyclohexyl]-8-(trifluoromethyl)-5,6-dihydro-4H-[1,2,4]triazolo[4,3-a][1]benzazepin-5-ol] | 7.5 | 140
24 | COC1Cc2cc(C(F)(F)F)ccc2-n2c(nnc2[C@H]2CC[C@H](Oc3ccccn3)CC2)C1 (stereo partly drawn) [Example 50, 5-methoxy-1-[trans-4-(pyridin-2-yloxy)cyclohexyl]-8-(trifluoromethyl)-5,6-dihydro-4H-[1,2,4]triazolo[4,3-a][1]benzazepine] | 2.7 | 20
25 | CC(C)(C)[Si](C)(C)OC1Cc2cc(Cl)ccc2-n2c(nnc2[C@H]2CC[C@H](Oc3ccccn3)CC2)C1 (stereo partly drawn) [Example 52, 5-{[tert-butyl(dimethyl)silyl]oxy}-8-chloro-1-[trans-4-(pyridin-2-yloxy)cyclohexyl]-5,6-dihydro-4H-[1,2,4]triazolo[4,3-a][1]benzazepine] | 11 | 60
